# Test results reported in ChEMBL document CHEMBL4152198, “The development of Bruton's tyrosine kinase (BTK) inhibitors from 2012 to 2017: A mini-review” (Eur J Med Chem, 2018).
# Key:
# [1] = biological target: T1, Tyrosine-protein kinase BTK (Homo sapiens, UniProt Q06187); test: Inhibition of BTK (unknown origin)
# [2] = biological target: T1, Tyrosine-protein kinase BTK; test: Binding affinity to BTK in human Ramos cells assessed as protein occupancy at 20 hrs post compound wash out; format: cell-based
# [3] = biological target: T2, Tyrosine-protein kinase JAK3 (Homo sapiens, UniProt P52333); test: Inhibition of JAK3 (unknown origin)
# T2 sequence (P52333 whole entry): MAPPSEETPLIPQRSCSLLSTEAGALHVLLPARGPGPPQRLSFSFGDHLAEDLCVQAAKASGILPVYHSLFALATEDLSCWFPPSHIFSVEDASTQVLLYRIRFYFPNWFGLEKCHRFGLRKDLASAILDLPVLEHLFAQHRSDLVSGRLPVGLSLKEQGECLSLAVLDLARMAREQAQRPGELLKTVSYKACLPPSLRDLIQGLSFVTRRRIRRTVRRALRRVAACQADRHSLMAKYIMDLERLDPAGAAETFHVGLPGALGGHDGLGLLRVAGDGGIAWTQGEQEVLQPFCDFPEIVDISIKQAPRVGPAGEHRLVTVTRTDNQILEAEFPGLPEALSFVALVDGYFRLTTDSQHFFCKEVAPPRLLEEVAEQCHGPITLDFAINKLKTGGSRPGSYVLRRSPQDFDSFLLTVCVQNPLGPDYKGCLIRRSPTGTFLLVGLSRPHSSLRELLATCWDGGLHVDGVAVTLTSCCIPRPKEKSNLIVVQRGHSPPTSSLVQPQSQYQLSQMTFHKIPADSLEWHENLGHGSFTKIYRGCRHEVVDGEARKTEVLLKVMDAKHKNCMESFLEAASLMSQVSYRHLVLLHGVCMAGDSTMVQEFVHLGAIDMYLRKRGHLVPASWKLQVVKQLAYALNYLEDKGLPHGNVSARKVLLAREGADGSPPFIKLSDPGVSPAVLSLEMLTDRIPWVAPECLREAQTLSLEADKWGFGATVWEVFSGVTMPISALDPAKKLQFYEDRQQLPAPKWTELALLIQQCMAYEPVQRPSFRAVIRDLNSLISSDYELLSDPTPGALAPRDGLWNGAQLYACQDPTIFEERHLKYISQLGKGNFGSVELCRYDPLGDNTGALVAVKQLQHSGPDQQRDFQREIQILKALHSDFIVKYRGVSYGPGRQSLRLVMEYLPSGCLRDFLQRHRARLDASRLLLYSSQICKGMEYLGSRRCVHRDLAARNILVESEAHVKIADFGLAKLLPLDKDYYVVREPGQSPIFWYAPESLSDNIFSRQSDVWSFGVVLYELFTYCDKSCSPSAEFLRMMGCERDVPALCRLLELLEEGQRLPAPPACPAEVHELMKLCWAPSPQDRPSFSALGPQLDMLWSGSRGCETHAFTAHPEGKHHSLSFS
# [4] = biological target: Receptor tyrosine-protein kinase erbB-4 (Homo sapiens, UniProt Q15303); test: Inhibition of ErbB4/HER4 (unknown origin)
# [5] = biological target: Tyrosine-protein kinase Lyn (Homo sapiens, UniProt P07948); test: Inhibition of LYN (unknown origin)
# [6] = biological target: T3, Tyrosine-protein kinase Tec (Homo sapiens, UniProt P42680); test: Inhibition of TEC (unknown origin)
# T3 sequence (P42680 whole entry): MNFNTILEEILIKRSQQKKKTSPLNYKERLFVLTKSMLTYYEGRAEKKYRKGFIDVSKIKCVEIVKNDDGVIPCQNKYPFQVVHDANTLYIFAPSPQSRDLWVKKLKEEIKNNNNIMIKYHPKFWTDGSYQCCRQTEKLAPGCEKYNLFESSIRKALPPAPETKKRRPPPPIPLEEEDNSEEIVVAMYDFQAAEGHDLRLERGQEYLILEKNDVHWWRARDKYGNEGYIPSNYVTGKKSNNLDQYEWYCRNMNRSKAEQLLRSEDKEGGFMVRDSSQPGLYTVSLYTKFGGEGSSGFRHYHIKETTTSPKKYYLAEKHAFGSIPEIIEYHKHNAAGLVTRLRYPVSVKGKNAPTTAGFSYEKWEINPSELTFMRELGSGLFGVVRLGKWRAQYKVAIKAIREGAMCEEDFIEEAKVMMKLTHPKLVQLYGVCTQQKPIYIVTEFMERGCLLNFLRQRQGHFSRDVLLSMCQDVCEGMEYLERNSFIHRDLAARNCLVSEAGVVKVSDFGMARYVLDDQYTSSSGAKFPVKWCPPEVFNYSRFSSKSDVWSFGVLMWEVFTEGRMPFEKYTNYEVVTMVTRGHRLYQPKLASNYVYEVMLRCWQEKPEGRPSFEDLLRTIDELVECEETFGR
# [7] = species: Homo sapiens; test: Selectivity for BTK (unknown origin) over ITK (unknown origin)
# [8] = species: Homo sapiens; test: Selectivity for BTK (unknown origin) over EGFR (unknown origin)
# [9] = biological target: T1, Tyrosine-protein kinase BTK; test: Binding affinity to BTK (unknown origin) assessed as residence time
# [10] = species: Homo sapiens; test: Selectivity for BTK (unknown origin) over JAK3 (unknown origin)
# [11] = biological target: Ribosomal protein S6 kinase alpha-3 (Homo sapiens, UniProt P51812); test: Binding affinity to RPS6KA3 (unknown origin)
# Chain of Ribosomal protein S6 kinase alpha-3 (P51812 whole entry): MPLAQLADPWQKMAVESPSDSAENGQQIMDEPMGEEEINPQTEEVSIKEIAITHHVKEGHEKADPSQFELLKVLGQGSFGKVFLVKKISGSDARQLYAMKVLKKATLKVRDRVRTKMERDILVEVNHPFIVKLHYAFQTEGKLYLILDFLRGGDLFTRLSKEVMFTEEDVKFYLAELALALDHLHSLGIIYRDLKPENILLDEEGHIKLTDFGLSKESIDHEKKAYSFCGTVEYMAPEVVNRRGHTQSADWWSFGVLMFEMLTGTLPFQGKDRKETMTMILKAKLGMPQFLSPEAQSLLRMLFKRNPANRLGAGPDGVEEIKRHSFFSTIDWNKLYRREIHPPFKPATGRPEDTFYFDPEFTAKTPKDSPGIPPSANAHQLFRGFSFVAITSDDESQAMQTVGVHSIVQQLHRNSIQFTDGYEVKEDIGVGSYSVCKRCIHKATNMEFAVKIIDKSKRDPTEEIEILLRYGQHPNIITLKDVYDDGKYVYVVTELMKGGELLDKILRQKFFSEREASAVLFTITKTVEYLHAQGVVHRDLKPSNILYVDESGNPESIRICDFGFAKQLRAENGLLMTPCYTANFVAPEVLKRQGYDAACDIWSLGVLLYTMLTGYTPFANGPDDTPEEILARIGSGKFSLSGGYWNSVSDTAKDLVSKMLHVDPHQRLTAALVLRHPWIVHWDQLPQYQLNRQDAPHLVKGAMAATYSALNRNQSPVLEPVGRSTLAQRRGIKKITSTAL
# T1 sequence (Q06187 whole entry): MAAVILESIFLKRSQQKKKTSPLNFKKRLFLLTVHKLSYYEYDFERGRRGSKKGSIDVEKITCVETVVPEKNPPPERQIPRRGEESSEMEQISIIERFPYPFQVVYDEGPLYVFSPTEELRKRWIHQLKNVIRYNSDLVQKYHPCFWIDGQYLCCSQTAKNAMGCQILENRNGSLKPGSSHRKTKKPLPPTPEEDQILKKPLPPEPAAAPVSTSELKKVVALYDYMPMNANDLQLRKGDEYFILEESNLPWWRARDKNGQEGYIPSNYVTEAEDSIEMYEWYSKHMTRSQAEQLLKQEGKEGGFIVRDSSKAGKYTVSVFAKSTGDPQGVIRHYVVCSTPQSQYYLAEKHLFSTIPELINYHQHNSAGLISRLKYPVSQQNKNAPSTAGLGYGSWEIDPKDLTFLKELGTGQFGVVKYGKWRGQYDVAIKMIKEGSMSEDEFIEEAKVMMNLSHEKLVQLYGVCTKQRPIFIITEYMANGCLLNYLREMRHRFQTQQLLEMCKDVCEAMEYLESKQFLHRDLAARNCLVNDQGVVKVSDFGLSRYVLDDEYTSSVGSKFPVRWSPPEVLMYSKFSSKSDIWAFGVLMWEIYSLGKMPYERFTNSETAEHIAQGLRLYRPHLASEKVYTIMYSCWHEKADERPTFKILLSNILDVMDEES
# Chain of Tyrosine-protein kinase Lyn (P07948 whole entry): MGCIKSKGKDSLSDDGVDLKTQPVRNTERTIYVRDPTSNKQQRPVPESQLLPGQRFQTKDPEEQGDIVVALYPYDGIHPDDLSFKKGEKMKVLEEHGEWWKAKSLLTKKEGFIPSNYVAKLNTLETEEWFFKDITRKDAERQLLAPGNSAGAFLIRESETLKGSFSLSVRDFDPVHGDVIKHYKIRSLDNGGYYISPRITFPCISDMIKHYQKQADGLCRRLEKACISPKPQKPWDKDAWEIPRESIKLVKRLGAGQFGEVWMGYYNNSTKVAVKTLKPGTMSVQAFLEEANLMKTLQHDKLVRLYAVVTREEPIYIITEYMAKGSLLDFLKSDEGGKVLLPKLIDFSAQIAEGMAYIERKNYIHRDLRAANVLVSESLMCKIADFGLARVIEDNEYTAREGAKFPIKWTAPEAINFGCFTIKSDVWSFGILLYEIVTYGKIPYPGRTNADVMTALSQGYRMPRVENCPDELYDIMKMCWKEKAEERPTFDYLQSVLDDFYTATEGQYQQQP
# Chain of Receptor tyrosine-protein kinase erbB-4 (Q15303 whole entry): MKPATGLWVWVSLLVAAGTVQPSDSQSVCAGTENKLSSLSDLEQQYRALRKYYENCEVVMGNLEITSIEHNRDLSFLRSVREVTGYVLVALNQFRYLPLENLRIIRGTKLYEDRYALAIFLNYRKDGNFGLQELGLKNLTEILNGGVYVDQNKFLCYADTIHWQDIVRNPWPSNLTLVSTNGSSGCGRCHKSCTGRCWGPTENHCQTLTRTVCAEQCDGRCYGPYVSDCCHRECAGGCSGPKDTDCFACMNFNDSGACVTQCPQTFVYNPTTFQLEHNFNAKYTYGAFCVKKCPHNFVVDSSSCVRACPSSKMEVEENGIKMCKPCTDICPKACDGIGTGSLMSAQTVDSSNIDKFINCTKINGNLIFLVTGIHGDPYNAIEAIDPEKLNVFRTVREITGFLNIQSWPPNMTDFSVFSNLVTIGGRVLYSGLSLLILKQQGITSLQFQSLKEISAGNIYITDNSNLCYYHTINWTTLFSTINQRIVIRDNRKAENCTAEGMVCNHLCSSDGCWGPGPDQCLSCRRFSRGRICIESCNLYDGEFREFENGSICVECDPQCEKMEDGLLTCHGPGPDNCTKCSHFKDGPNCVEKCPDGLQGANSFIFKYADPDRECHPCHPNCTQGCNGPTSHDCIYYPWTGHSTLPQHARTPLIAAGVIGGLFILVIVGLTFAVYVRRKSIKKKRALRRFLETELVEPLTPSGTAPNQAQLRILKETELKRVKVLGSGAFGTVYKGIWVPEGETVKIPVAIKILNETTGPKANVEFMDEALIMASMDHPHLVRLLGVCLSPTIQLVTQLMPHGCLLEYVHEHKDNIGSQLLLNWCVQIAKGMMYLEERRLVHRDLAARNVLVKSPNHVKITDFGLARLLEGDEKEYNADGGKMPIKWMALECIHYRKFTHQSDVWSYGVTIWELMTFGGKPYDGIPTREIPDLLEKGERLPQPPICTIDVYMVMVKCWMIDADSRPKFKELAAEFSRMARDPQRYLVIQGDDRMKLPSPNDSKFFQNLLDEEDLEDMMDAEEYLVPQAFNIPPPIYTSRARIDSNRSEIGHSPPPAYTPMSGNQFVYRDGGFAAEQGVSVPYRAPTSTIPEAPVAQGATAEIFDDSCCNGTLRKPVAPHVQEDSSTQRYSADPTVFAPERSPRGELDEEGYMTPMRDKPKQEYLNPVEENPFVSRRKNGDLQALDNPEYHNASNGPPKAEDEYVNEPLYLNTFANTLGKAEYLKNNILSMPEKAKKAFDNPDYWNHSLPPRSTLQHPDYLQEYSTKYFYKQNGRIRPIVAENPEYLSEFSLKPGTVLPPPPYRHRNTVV
smiles,measurement,setting,value
C=CC(=O)Nc1cccc(Oc2nc(Nc3ccc(N4CCN(C)CC4)cc3)nc3ccoc23)c1 [POSELTINIB],IC50,[1],652 nM
CC(C)(C)/C=C(/C#N)C(=O)N1CCC[C@@H](n2nc(-c3ccc(Oc4ccccc4)cc3)c3c(N)ncnc32)C1,IC50,[1],4 nM
same,Occ,[2],55%
same,IC50,[3],> 5 µM
CC(C)(/C=C(\C#N)C(=O)N1CCC[C@H](n2nc(-c3ccc(Oc4ccccc4)cc3F)c3c(N)ncnc32)C1)N1CCN(C2COC2)CC1,IC50,[4],11.3 nM
C=CC(=O)Nc1cccc(Nc2nc(Nc3ccc(OCCOC)cc3)ncc2F)c1 [SPEBRUTINIB],IC50,[5],4.4 µM
same,IC50,[6],6.2 nM
CN(C1COC1)C(C)(C)/C=C(\C#N)C(=O)N1CCC[C@H]1Cn1nc(-c2ccc(Oc3ccccc3)cc2F)c2c(N)ncnc21,Selectivity ratio,[7],60
same,Selectivity ratio,[8],> 1000
same,TIME,[9],161 h
same,Selectivity ratio,[10],> 1000
same,Kd,[11],0.54 nM
Cc1cc2[nH]ncc2cc1-c1cccc2c(N)c(C(N)=O)nnc12,IC50,[1],2 nM
